According to patent publication US20240180887A1, “USE OF PPAR(gamma) AGONISTS OR MPC INHIBITORS FOR TREATING PRIMARY, INNATE DISEASES OF THE CARDIAC MUSCLE (CARDIOMYOPATHIES)” (PREVENTAGE THERAPEUTICS GMBH, priority 2021, published 2024):
“Also recorded” adds a separate entry of the source.

Experiments:
[1] = test system: αMHC^719/+ HCM mouse model; assay: Preclinical αMHC^719/+ HCM mouse model, overall summary of results; type: in vivo; details: oral administration in the αMHC^719/+ HCM mouse model
Description: The examinations were carried out on an established HCM mouse model, in which an arginine-to-tryptophan mutation at position 719 of the heavy chain of the cardiac mouse alpha-myosin gene was effected by homologous recombination (referred to as αMHC^719/+)^38. Such genetically modified mice increasingly develop the typical pathognomonic disease characteristics of hypertrophic cardiomyopathy such as myocardial hypertrophy and fibrosis with increasing age. The phenotype of this genetically generated HCM mouse model thus simulates the phenotype of HCM patients affected^36,37,38. The manifestation of the disease can be accelerated by subcutaneous administration of the calcineurin inhibitor cyclosporin A (CsA)^9.
Between their 6th and 12th postnatal week, all mice were injected subcutaneously with cyclosporin A (CsA) to accelerate hypertrophic remodeling in the myocardium in the HCM mouse model^9. Half of the mice were treated with the PPARγ agonists rosiglitazone and pioglitazone from the group of thiazolidinediones between their 6th and 12th postnatal week. In their 12th postnatal week, they were subjected to in vivo transthoracic echocardiography. The animals were then euthanized for ex vivo examination (organ removal, histopathology, and determination of radical oxygen species, of mRNA and protein expression in the tissue) (see FIG. 10).D

PPARγ mRNA = assay: Relative expression of PPARγ mRNA in the left ventricular myocardium (RtPCR); type: in vivo, mouse; details: αMHC^719/+ mice, oral rosiglitazone, 6 weeks, compared to wild-type level
Description: FIG. 7 Relative expression of PPARγ mRNA in the left ventricular myocardium of untreated HCM mice and HCM mice (αMHC^719/+) treated with N-acetylcysteine (NAC) or rosiglitazone (Rosi) compared to wild-type mice (WT) after 6 weeks; ***: p<0.001.
RNA isolation was carried out by means of the peqGOLD Total RNA Kit (Peqlab) from the left ventricular myocardium according to the manufacturer's instructions. First-strand cDNA was synthesized from 500 ng of total RNA, which is reverse-transcribed (Reverse Transcription Kit, Invitrogen) with random hexamers (TIB Molbiol). RtPCR analysis is carried out with Perfecta SYBR Green fast Mix (VWR, Germany) in the QIAGEN Rotor-Gene Q (Corbett Rotor-Gene 6000). Quantification is done by means of […] calculation and randomization test^49,50.

HCM mice (αMHC^719/+) [2] = assay: Echocardiography: maximum left ventricular wall thickness, stereoisomers of pioglitazone (experimental setup C); type: in vivo, mouse; details: αMHC^719/+ mice, 10 mg/kg/day orally, 6 weeks, vs untreated αMHC^719/+
Excerpt: This experimental protocol examined the action of the two stereoisomers of a thiazolidinedione (pioglitazone) ((S)- and (R)-stereoisomers) in the same hypertrophic cardiomyopathy mouse model as described for experimental setup A. The experimental setup is thus similar to the experimental setup according to A. The animals were genotyped in their 3rd postnatal week (as also described in accordance with experimental setup A). Between their 6th and 12th postnatal week, all 65 mice were orally administered a daily dose of 30 mg/kg cyclosporin A (CsA) which was added to their pellet diet to accelerate hypertrophic remodeling in the myocardium in the HCM mouse model^56. Between their 6th and 12th postnatal week, (a) 13 WT and 9 MHC^719/+ mice were in addition treated orally with the (R)-stereoisomer of a thiazolidinedione (pioglitazone) (10 mg/kg/day) or (b) 12 WT and 11 αMHC^719/+ mice were in addition treated orally with the (S)-stereoisomer (pioglitazone) (10 mg/kg/day). In their 12th postnatal week, they were subjected to in vivo transthoracic echocardiography. The animals were then euthanized for ex vivo examination (organ removal and histopathology) (see FIG. 11). As shown in experimental setup A, in vivo phenotyping of the left ventricular wall thickness and ventricular function was done by means of transthoracic echocardiography, as described above^40,41,39. Examination by echocardiography was done as follows—specifically: removal of the mice from the cage, weighing and visual assessment of the animals, performance of echocardiography according to standardized, published standard protocols in conscious animals after 30 minutes of observation^39,41,37,40. In order to quantify fibrosis, the removed hearts were fixed in 4% of paraformaldehyde, dehydrated, and placed in paraffin, as described above^37,42,43. […] Semi-quantification of myocardial fibrosis was done independently of one another by two blinded examiners. For this purpose, the percentage of cardiac muscle portions stained blue with Masson's trichrome in relation to the overall stained cardiac muscle was calculated. […]

HCM mice (αMHC^719/+) [3] = assay: Semi-quantitative myocardial fibrosis score on Masson's trichrome sections, stereoisomers of pioglitazone (experimental setup C); type: in vivo, mouse; details: αMHC^719/+ mice, 10 mg/kg/day orally, 6 weeks, vs untreated αMHC^719/+
Description: FIG. 13 Determination of myocardial fibrosis using histopathological sections of myocardium. The manifestation of myocardial fibrosis (blue-colored in the Masson's trichrome-stained histological sections) was determined semi-quantitatively by two blinded examiners in each case independently of one another. The scores assigned were 0 to 3:0: no fibrosis, 1: mild fibrosis; 2: moderate fibrosis, 3: severe fibrosis; 0.5: no to mild fibrosis, 1.5: mild to moderate fibrosis; 2.5: moderate to severe fibrosis, 3: severe fibrosis. The animals were genotyped in their 3rd postnatal week (as also described in accordance with experimental setup A). Between their 6th and 12th postnatal week, all 65 mice were orally administered a daily dose of 30 mg/kg cyclosporin A (CsA) which was added to their pellet diet to accelerate hypertrophic remodeling in the myocardium in the HCM mouse model^56. Between their 6th and 12th postnatal week, (a) 13 WT and 9 MHC^719/+ mice were in addition treated orally with the (R)-stereoisomer of a thiazolidinedione (pioglitazone) (10 mg/kg/day) or (b) 12 WT and 11 αMHC^719/+ mice were in addition treated orally with the (S)-stereoisomer (pioglitazone) (10 mg/kg/day). In their 12th postnatal week, they were subjected to in vivo transthoracic echocardiography. The animals were then euthanized for ex vivo examination (organ removal and histopathology) (see FIG. 11). Examination by echocardiography was done as follows—specifically: removal of the mice from the cage, weighing and visual assessment of the animals, performance of echocardiography according to standardized, published standard protocols in conscious animals after 30 minutes of observation^39,41,37,40. In order to quantify fibrosis, the removed hearts were fixed in 4% of paraformaldehyde, dehydrated, and placed in paraffin, as described above^37,42,43. 5-μm sections were stained with Masson's trichrome. Semi-quantification of myocardial fibrosis was done independently of one another by two blinded examiners. For this purpose, the percentage of cardiac muscle portions stained blue with Masson's trichrome in relation to the overall stained cardiac muscle was calculated. Perivascular and intramurine structures, the endocardium, and trabeculas were excluded in the calculation of the percentage of fibrosis. The classification was “no fibrosis,” “mild fibrosis,” “moderate fibrosis,” and “severe fibrosis.”

[4] = (R)-Pio p<0.001, (S)-Pio p=0.072
[5] = (R)-Pio p=0.01, (S)-Pio p=0.916

SMILES | changes in biophysical properties in the heart muscle cell and onset of myocardial hypertrophy and fibrosis [1] | myocardial mRNA expression of PPARγ (PPARγ mRNA) | development of myocardial hypertrophy (maximum thickness of the wall of the left ventricle) (HCM mice (αMHC^719/+) [2]; [4]) | development of myocardial hypertrophy (maximum thickness of the wall of the left ventricle) (HCM mice (αMHC^719/+) [2]; (R)-Pio p<0.001, (S)-Pio p=0.072, listed as (R)-stereoisomer of a thiazolidinedione) | development of myocardial fibrosis (semi-quantitative score 0 to 3) (HCM mice (αMHC^719/+) [3]; [5]) | development of myocardial fibrosis (semi-quantitative score 0 to 3) (HCM mice (αMHC^719/+) [3]; (R)-Pio p=0.01, (S)-Pio p=0.916, listed as (R)-stereoisomer of a thiazolidinedione) | development of myocardial fibrosis (semi-quantitative score 0 to 3) (HCM mice (αMHC^719/+) [3]; (R)-Pio p=0.01, (S)-Pio p=0.916, listed as S-stereoisomer of pioglitazone)
CN(CCOc1ccc(CC2SC(=O)NC2=O)cc1)c1ccccn1 (racemic) [rosiglitazone, (RS)-5-({4-[2-(methyl-2-pyridinylamino)ethoxy]phenyl}methyl)-2,4-thiazolidinedione] | largely prevents | increases the myocardial mRNA expression of PPARγ again almost completely to wild-type level | – | – | – | – | –
CCc1ccc(CCOc2ccc(C[C@H]3SC(=O)NC3=O)cc2)nc1 (single isomer, unassigned) [(R)-stereoisomer of pioglitazone] | – | – | significantly inhibited | significantly lessened | significantly inhibited | significantly lessened | –
CCc1ccc(CCOc2ccc(C[C@@H]3SC(=O)NC3=O)cc2)nc1 (single isomer, unassigned) [(S)-stereoisomer of pioglitazone] | – | – | tends to result in lessened hypertrophy; also recorded: less pronounced | – | not in a reduction of myocardial fibrosis | – | cannot be seen
